Source: paper PMC6581923 (Journal of Molecular Neuroscience, 2018)
Where two headings read alike, the source gives them in different places.

Legend:
[1] = Efficiency of Traversing Eye to Retina (EtE) of FITC labeled peptides given in eye drops; assay type: in vivo, rat (male)
Description: In order to trace the drugs, peptides were labeled with fluorescein isothiocyanate (FITC) using a FITC Protein Labeling Kit from ChangRu Biotech Ltd. (Guangzhou, China) according to the manufacturer’s protocol. After the labeling reaction, gel filtration was used to remove the free FITC. In order to determine the amount of the residual free FITC, the peptides were submitted to ultrafiltration using Amicon Ultra – 0.5 mL (Millipore, USA) with a molecular sieve of 2000 Da. After centrifugation (1000×g, 10 min) the peptide was subjected to fluorescence measurements performed with the multi-wavelength scanner Victor 3 (GE, USA) at the excitation of 495 nm and the emission of 520 nm. Protein concentrations were determined using the K4000 Bradford Protein Quantification Kit (Innovative, Guangzhou, China). The labeling efficiency was calculated using the following formula: label efficiency (LE) = fluorescence value (FV)/peptide mass (mol) (PM), representing the fluorescence intensity (AU) per mol of peptide (mol).
Male rats with body weight from 160 to 180 g were purchased from the Medical and Experimental Animal Center (Guangdong, China). Rats were randomly assigned to one of the experimental groups (7 rats per group) and subjected to eye drops with FITC labeled peptides (100 nmol/kg) and PBS as control. Rats were sacrificed by anesthesia 2 h after the eye drop administration and the retina was separated, weighed, washed three times with PBS and divided into two parts. One part was prepared on the glass slide with glycerin and subjected to fluorescence microscopic observation of FITC with 495 nm excitation/520 nm emission. All images, focused on the left upper regions of the retina, were taken with 500 ms exposure time. The other part of the retina was subjected to grinding and ultrasonication in PBS at a concentration of 100 mg weight tissue per milliliter of PBS. The supernatant was collected by centrifugation and the fluorescence intensity in the supernatant (100 uL) was determined. The valid fluorescence intensity (FI) for each sample treated with FITC labeled peptide was corrected by subtracting the fluorescence value of the sample treated with PBS, which was used as a blank background. The Efficiency of Traversing Eye to Retina (EtE) was expressed as the percentages of the FITC labeled peptide mass in the retina to the total FITC labeled peptide mass. The EtE was calculated using the following formula: EtE = tFI/LE/PW × 100% (tFI presents the fluorescence intensity of retina (arbitration unit, AU); LE presents the label efficiency of each peptide which has been determined above; PW presents the peptide mass (mole)).
Fig. 1 The efficiency of FITC labeled PACAP/PACAP-TAT (a, b) and VIP/VIP-TAT (c, d) traversing to retina given in eye drops. The retina was separated 2 h after the eye drops and submitted to the fluorescence microscopic observation of FITC fluorescence signal (A, C) and the calculation of Efficiency of Traversing Eye to Retina (EtE) (b, d). The data are means ± SEM of four experiments

PAC1 receptor = tested on: PAC1 receptor; design: method as in 2 sources, one per row (each row's own in cited_ref): ref Yu et al. [2014] ||| ref Vaudry et al. [2009]; settings: vs VIP, ref Yu et al. [2014], cited from earlier work
Description: The retinoprotective effects of PACAP are well-documented and have been proven in different injury models, such as excitotoxic, ischemic, UV light-induced, traumatic, diabetic and oxygen-induced injuries (Atlasz et al. [2008], [2011], [2016]; Kvarik et al. [2016]; Shioda et al. [2016]; Szabadfi et al. [2016]; Vaczy et al. [2016]). […] P ...

PAC1-R = target: T1, PAC1-R (Homo sapiens, UniProt P41586); experiment: cAMP accumulation assay in PAC1-CHO cells; assay type: cell-based
T1 construct: expressed in transfected cells; host or cells: PAC1-CHO cells (CHO cells expressing PAC1-R); That they are transfected is inferred from the cell line's name
T1 sequence (P41586 21-468): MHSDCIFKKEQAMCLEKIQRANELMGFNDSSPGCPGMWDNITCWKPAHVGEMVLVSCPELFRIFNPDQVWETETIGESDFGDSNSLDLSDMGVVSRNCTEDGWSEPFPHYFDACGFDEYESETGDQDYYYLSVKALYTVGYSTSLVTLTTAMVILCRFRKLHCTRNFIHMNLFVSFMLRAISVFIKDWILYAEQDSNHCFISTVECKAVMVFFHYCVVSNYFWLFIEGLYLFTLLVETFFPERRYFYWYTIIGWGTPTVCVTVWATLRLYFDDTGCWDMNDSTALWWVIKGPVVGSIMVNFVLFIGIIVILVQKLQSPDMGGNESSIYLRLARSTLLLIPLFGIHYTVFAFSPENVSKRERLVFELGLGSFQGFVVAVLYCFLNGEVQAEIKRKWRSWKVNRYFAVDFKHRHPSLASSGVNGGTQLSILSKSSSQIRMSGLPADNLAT
Description: PAC1-CHO cells cultured in Dulbecco’s Modified Eagle’s Medium (DMEM) at 37 °C were scraped off the surface with rubber policeman, washed twice with PBS and the density of the cells was adjusted to 2 × 10^6 /mL. Peptides were added to 500 uL cells suspension with the corresponding varying working concentrations of the detected factor. After incubation at 37 °C for 5-10 min cells were harvested and the lysates were subjected to cAMP quantification using the enzyme immunoassay kit for cAMP (Biyuntian, Shanghai, China), following the manufacturer’s instructions. Protein concentration of each sample was determined using BCA assay, and the cAMP level of each sample was calculated following the formula: cAMP level (pmol/mg protein) = cAMP concentration (pmol/mL)/protein concentration (mg/mL). The cAMP level in each sample was plotted as the percentage (%) of the maximal cAMP level in cells treated with PACAP27 versus the logarithmic value of the peptide concentrations. All experiments were run with at least four parallel samples and were repeated three times.
The data are means ± SEM of four experiments

SMILES: CC[C@H](C)[C@H](NC(=O)[C@H](CO)NC(=O)[C@H](CC(N)=O)NC(=O)[C@H](CC(C)C)NC(=O)[C@H](Cc1ccc(O)cc1)NC(=O)[C@H](CCCCN)NC(=O)[C@H](CCCCN)NC(=O)[C@@H](NC(=O)[C@H](C)NC(=O)[C@H](CCSC)NC(=O)[C@H](CCC(N)=O)NC(=O)[C@H](CCCCN)NC(=O)[C@H](CCCNC(=N)N)NC(=O)[C@H](CC(C)C)NC(=O)[C@H](CCCNC(=N)N)NC(=O)[C@@H](NC(=O)[C@H](Cc1ccc(O)cc1)NC(=O)[C@H](CC(N)=O)NC(=O)[C@H](CC(=O)O)NC(=O)[C@@H](NC(=O)[C@H](Cc1ccccc1)NC(=O)[C@@H](NC(=O)[C@H](C)NC(=O)[C@H](CC(=O)O)NC(=O)[C@H](CO)NC(=O)[C@@H](N)Cc1c[nH]cn1)C(C)C)[C@@H](C)O)[C@@H](C)O)C(C)C)C(=O)N[C@@H](CC(C)C)C(=O)N[C@@H](CC(N)=O)C(=O)NCC(=O)N[C@@H](CCCNC(=N)N)C(=O)N[C@@H](CCCCN)C(=O)N[C@@H](CCCCN)C(=O)N[C@@H](CCCNC(=N)N)C(=O)N[C@@H](CCCNC(=N)N)C(=O)N[C@@H](CCC(N)=O)C(=O)N[C@@H](CCCNC(=N)N)C(=O)N[C@@H](CCCNC(=N)N)C(=O)N[C@@H](CCCNC(=N)N)C(=O)N1CCC[C@H]1C(=O)N[C@@H](CCC(N)=O)C(=O)O [VIP-TAT]
- Efficiency of Traversing Eye to Retina (EtE) ([1]; FITC labeled peptides, eye drops 100 nmol/kg, retina separated 2 h after, fluorescence 495 nm excitation/520 nm emission, % of FITC labeled peptide mass in retina to total, means ± SEM of four experiments (7 rats per group)): 3.05 ± 0.58%
- EtE relative to the untagged peptide ([1]; PACAP-TAT/VIP-TAT vs PACAP/VIP, respectively, eye drops 100 nmol/kg, 2 h): about three-fold that of PACAP/VIP
- FITC fluorescence density per area unit in the retina ([1]; fluorescence microscopy of retina 2 h after eye drops of FITC labeled peptides (100 nmol/kg), vs PACAP/VIP): much higher than in retinas treated with eye drops of PACAP/VIP
- Activity on / affinity for PAC1 receptor relative to VIP (PAC1 receptor): higher activity on the activation of PACAP preferring PAC1receptor than VIP
- Activity on / affinity for PAC1 receptor relative to VIP (PAC1 receptor; listed as VIP bound to TAT peptide): higher affinity for PAC1-R
- EC50 as fraction of the EC50 of VIP (PAC1-R; VIP-TAT vs VIP): about 1/200
- Effect of TAT-tagging on activation of PAC1-R (cAMP), in words (PAC1-R; tagged vs untagged peptide): enhanced the activity of VIP on the activation of PAC1-R
